# Data taken from patent US4898858A, “Cephalosporin derivatives and antibiotics containing the same” (Meiji Seika Kaisha Ltd., priority 1985, dated 1990).
# Where two headings read alike, the source gives them in different places.
# Columns and labels:
# [1] = tested on: Klebsiella pneumoniae GN-69; assay: minimum growth-inhibitory concentration (MIC) in vitro; assay type: cell-based
# [2] = tested on: Staphylococcus aureus 606 E-25; assay: as above; assay type: cell-based; conditions: 606E25
# [3] = tested on: Pseudomonas aeruginosa MB-3833; assay: as above; assay type: cell-based; conditions: MB3833
# [4] = tested on: Klebsiella pneumoniae GN-118; assay: as above; assay type: cell-based; conditions: GN118
# [5] = tested on: Serratia marcescens GN-629; assay: as above; assay type: cell-based; conditions: GN629
# [6] = tested on: Escherichia coli ML1410; assay: as above; assay type: cell-based
# [7] = tested on: Staphylococcus aureus 606; assay: as above; assay type: cell-based
# [8] = tested on: Proteus morganii 1510; assay: as above; assay type: cell-based; conditions: Morganella morganii
# [9] = tested on: Proteus vulgais GN-76; assay: as above; assay type: cell-based
# [10] = tested on: Proteus rettgeri J-0026; assay: as above; assay type: cell-based; conditions: Providencia rettgeri, J0026
# [11] = tested on: Pseudomonas aeruginosa E-2; assay: as above; assay type: cell-based; conditions: E2
# [12] = tested on: Salmonella typhimurium LT-2; assay: as above; assay type: cell-based; conditions: Salmonella enterica
# [13] = tested on: Staphylococcus aureus 209P JC-1; assay: as above; assay type: cell-based
# [14] = tested on: Pseudomonas aeruginosa GN-10362; assay: as above; assay type: cell-based; conditions: GN10362
# [15] = tested on: Escherichia coli No.29; assay: as above; assay type: cell-based
# [16] = tested on: Proteus vulgais GN-76/C-1; assay: as above; conditions: for MIC: Proteus vulgaris, GN76, read-out: MIC-value
# [17] = tested on: Streptocuccus faecalis W-75; assay: as above; assay type: cell-based
# [18] = tested on: Salmonella enteritidis No.11; assay: as above; assay type: cell-based; conditions: Salmonella enterica
# [19] = tested on: Enterobacter Cloacae G-0008; assay: as above; assay type: cell-based
# [20] = tested on: Escherichia coli NIHJ JC-2; assay: as above; assay type: cell-based
# [21] = tested on: Serratia marcescens GN-10857; assay: as above; assay type: cell-based; conditions: GN10857
# [22] = tested on: Enterobacter Cloacae G-0005; assay: as above; assay type: cell-based
# [23] = tested on: Proteus rettgeri GN-624; assay: as above; assay type: cell-based; conditions: Providencia rettgeri, GN624
# [24] = tested on: Pseudomonas aeniginosa; assay: MIC, comparison of the compounds of the present invention and the relevant compounds; assay type: cell-based; conditions: Table 2, strain not given, by substituent B
# [25] = GN69, Klebsiella pneumoniae GN-69, in vitro, read-out: MIC-value
# [26] = NIHJJC2, Escherichia coli NIHJ JC-2, in vitro, read-out: MIC-value
"MIC [1, 25]",MIC [2],MIC [3],MIC [4],MIC [5],MIC [6],MIC [7],MIC [8],MIC [9],MIC [10],MIC [11],MIC [12],MIC [13],MIC [16],MIC [17],MIC [18],MIC [19],MIC [21],MIC [22],MIC [23],SMILES,further results
< 0.025 µg/mL,3.13 µg/mL,1.56 µg/mL,< 0.025 µg/mL,0.1 µg/mL,0.1 µg/mL,3.13 µg/mL,1.56 µg/mL,0.05 µg/mL,0.1 µg/mL,1.56 µg/mL,< 0.025 µg/mL,3.13 µg/mL,0.1 µg/mL,3.13 µg/mL,< 0.025 µg/mL,0.1 µg/mL,0.78 µg/mL,0.05 µg/mL,0.05 µg/mL,"CC(O/N=C(\C(=O)N[C@@H]1C(=O)N2C(C(=O)[O-])=C(CSc3cc[n+](CCF)cc3)CS[C@H]12)c1csc(N)n1)C(=O)O (stereo partly drawn) [Example 1, (6R,7R)-7-{(Z)-2-(2-Aminothiazol-4-yl)-2-(1-carboxyethoxyimino)acetamido}-3-[{1-(2-fluoroethyl)pyridinium}-4-ylthiomethyl]-ceph-3-em-4-carboxylate]","MIC [14]: 1.56 µg/mL; MIC [15]: 0.1 µg/mL; MIC [20, 26]: 0.1 µg/mL"
0.05 µg/mL,6.25 µg/mL,3.13 µg/mL,0.05 µg/mL,0.39 µg/mL,0.2 µg/mL,6.25 µg/mL,1.56 µg/mL,0.1 µg/mL,0.2 µg/mL,3.13 µg/mL,0.05 µg/mL,3.13 µg/mL,0.1 µg/mL,3.13 µg/mL,< 0.025 µg/mL,0.2 µg/mL,3.13 µg/mL,0.2 µg/mL,0.1 µg/mL,"C[C@@H](O/N=C(\C(=O)N[C@@H]1C(=O)N2C(C(=O)[O-])=C(CSc3cc[n+](CCF)cc3)CS[C@H]12)c1csc(N)n1)C(=O)O [Example 2, (6R,7R)-7-[(Z)-2-(2-Aminothiazol-4-yl)-2-{(1R)-carboxyethoxyimino}acetamido]-3-[{1-(2-fluoroethyl)pyridinium}-4-ylthiomethyl]-ceph-3-em-4-carboxylate]","MIC [14]: 3.13 µg/mL; MIC [15]: 0.1 µg/mL; MIC [20, 26]: 0.1 µg/mL"
0.05 µg/mL,3.13 µg/mL,1.56 µg/mL,< 0.025 µg/mL,0.2 µg/mL,0.1 µg/mL,3.13 µg/mL,1.56 µg/mL,< 0.025 µg/mL,0.1 µg/mL,1.56 µg/mL,< 0.025 µg/mL,1.56 µg/mL,0.05 µg/mL,1.56 µg/mL,< 0.025 µg/mL,0.1 µg/mL,0.78 µg/mL,0.05 µg/mL,0.05 µg/mL,"C[C@H](O/N=C(\C(=O)N[C@@H]1C(=O)N2C(C(=O)[O-])=C(CSc3cc[n+](CCF)cc3)CS[C@H]12)c1csc(N)n1)C(=O)O [Example 3, (6R,7R)-7-[(Z)-2-(2-Aminothiazol-4-yl)-2-{(1S)-carboxyethoxyimino}acetamido]-3-[{1-(2-fluoroethyl)pyridinium}-4-ylthiomethyl]-ceph-3-em-4-carboxylate]","MIC [14]: 1.56 µg/mL; MIC [15]: 0.1 µg/mL; MIC [20, 26]: 0.1 µg/mL"
0.1 µg/mL,6.25 µg/mL,3.13 µg/mL,0.1 µg/mL,0.78 µg/mL,0.39 µg/mL,6.25 µg/mL,3.13 µg/mL,0.05 µg/mL,0.78 µg/mL,3.13 µg/mL,0.2 µg/mL,6.25 µg/mL,0.2 µg/mL,6.25 µg/mL,< 0.025 µg/mL,0.39 µg/mL,3.13 µg/mL,0.39 µg/mL,0.05 µg/mL,CCC(O/N=C(\C(=O)N[C@@H]1C(=O)N2C(C(=O)[O-])=C(CSc3cc[n+](CCF)cc3)CS[C@H]12)c1csc(N)n1)C(=O)O (some centres unmarked) [Example 4],"MIC [14]: 3.13 µg/mL; MIC [15]: 0.39 µg/mL; MIC [20, 26]: 0.39 µg/mL"
1.56 µg/mL,3.13 µg/mL,12.5 µg/mL,1.56 µg/mL,6.25 µg/mL,3.13 µg/mL,3.13 µg/mL,6.25 µg/mL,0.78 µg/mL,3.13 µg/mL,12.5 µg/mL,3.13 µg/mL,1.56 µg/mL,0.78 µg/mL,3.13 µg/mL,0.2 µg/mL,3.13 µg/mL,6.25 µg/mL,3.13 µg/mL,0.39 µg/mL,Nc1nc(/C(=N/OC(C(=O)O)C2CCCCC2)C(=O)N[C@@H]2C(=O)N3C(C(=O)[O-])=C(CSc4cc[n+](CCF)cc4)CS[C@H]23)cs1 (some centres unmarked) [Example 5],"MIC [14]: 12.5 µg/mL; MIC [15]: 3.13 µg/mL; MIC [20, 26]: 3.13 µg/mL"
< 0.025 µg/mL,3.13 µg/mL,0.78 µg/mL,< 0.025 µg/mL,0.1 µg/mL,0.1 µg/mL,3.13 µg/mL,1.56 µg/mL,0.025 µg/mL,0.1 µg/mL,0.78 µg/mL,< 0.025 µg/mL,1.56 µg/mL,0.05 µg/mL,1.56 µg/mL,< 0.025 µg/mL,0.1 µg/mL,0.39 µg/mL,0.05 µg/mL,< 0.025 µg/mL,"C[C@H](O/N=C(\C(=O)N[C@@H]1C(=O)N2C(C(=O)[O-])=C(CSc3cc[n+](C)cc3)CS[C@H]12)c1csc(N)n1)C(=O)O [Example 7, (6R,7R)-7-[(Z)-2-(2-Aminothiazol-4-yl)-2-{(1S)-carboxyethoxyimino}acetamid]-3-(1-methylpyridinium-4-ylthiomethyl)-ceph-3-em-4-carboxylate]","MIC [14]: 0.78 µg/mL; MIC [15]: 0.1 µg/mL; MIC [20, 26]: 0.1 µg/mL"
< 0.025 µg/mL,3.13 µg/mL,0.78 µg/mL,< 0.025 µg/mL,0.1 µg/mL,0.1 µg/mL,1.56 µg/mL,0.78 µg/mL,0.025 µg/mL,0.05 µg/mL,0.78 µg/mL,< 0.025 µg/mL,,0.05 µg/mL,0.78 µg/mL,< 0.025 µg/mL,0.05 µg/mL,0.39 µg/mL,0.05 µg/mL,0.05 µg/mL,CC[n+]1ccc(SCC2=C(C(=O)[O-])N3C(=O)[C@@H](NC(=O)/C(=N\O[C@@H](C)C(=O)O)c4csc(N)n4)[C@H]3SC2)cc1 [Example 8],"MIC [20, 26]: 0.1 µg/mL"
0.05 µg/mL,6.25 µg/mL,3.13 µg/mL,0.05 µg/mL,0.39 µg/mL,0.1 µg/mL,6.25 µg/mL,0.78 µg/mL,0.1 µg/mL,0.2 µg/mL,1.56 µg/mL,0.05 µg/mL,3.13 µg/mL,0.1 µg/mL,6.25 µg/mL,< 0.025 µg/mL,0.1 µg/mL,1.56 µg/mL,0.2 µg/mL,< 0.025 µg/mL,"CC[n+]1ccc(SCC2=C(C(=O)[O-])N3C(=O)[C@@H](NC(=O)/C(=N\O[C@H](C)C(=O)O)c4csc(N)n4)[C@H]3SC2)cc1 [Example 9, (6R,7R)-7-[(Z)-2-(2-Aminothiazol-4-yl)-2-{(1R)-carboxyethoxyimino}acetamid]-3-(1-ethylpyridinium-4-ylthiomethyl)-ceph-3-em-4-carboxylate]","MIC [14]: 3.13 µg/mL; MIC [15]: 0.1 µg/mL; MIC [20, 26]: 0.1 µg/mL"
,,,,,,,,,,,,,,,,,,,,C[C@H](O/N=C(\C(=O)N[C@@H]1C(=O)N2C(C(=O)[O-])=C(CSc3cc[n+](C)cc3)CS[C@H]12)c1csc(N)n1)C(=O)O [drawing 15],"MIC [24]: 0.78 µg/mL; MIC-value ([16]; Table 2, Proteus vulgaris GN76/C-1, by substituent B): 0.05 µg/mL"

SMILES,"MIC [1, 25]",MIC [2],MIC [3],MIC [4],MIC [5],MIC [6],MIC [7],MIC [8],MIC [9],MIC [10],MIC [11],MIC [12],MIC [13],MIC [16],MIC [17],MIC [18],MIC [19],MIC [21],MIC [22],MIC [23],further results
Nc1nc(/C(=N/OC(CF)C(=O)O)C(=O)N[C@@H]2C(=O)N3C(C(=O)[O-])=C(CSc4cc[n+](CCF)cc4)CS[C@H]23)cs1 (some centres unmarked) [Example 6],,3.13 µg/mL,1.56 µg/mL,< 0.025 µg/mL,0.2 µg/mL,0.1 µg/mL,3.13 µg/mL,0.78 µg/mL,0.05 µg/mL,0.2 µg/mL,1.56 µg/mL,< 0.025 µg/mL,1.56 µg/mL,0.1 µg/mL,3.13 µg/mL,0.05 µg/mL,0.1 µg/mL,1.56 µg/mL,0.05 µg/mL,< 0.025 µg/mL,"MIC ([1]; Klebsiella pneumoniae, GN69, read-out: MIC-value): < 0.025 µg/mL; MIC [14]: 3.13 µg/mL; MIC [15]: 0.1 µg/mL; MIC ([20]; Escherichia coli, NIHJJC2, read-out: MIC-value): 0.05 µg/mL"
